1 compound from patent US20240287123A1 (Victoria Link Limited, priority 2021, published 2024) can be followed below.

Read-outs that look alike come from different tables or passages of the source.

Data set [1] relates to EBV (Akata/Akata). Nature of the data set: EBV assay: viral DNA quantification in induced Akata cells. In kind it is cell-based, Epstein-Barr virus. Particulars: for EC50: human gammaherpesvirus 4, Akata. Here is the method: (§1) Akata cells were obtained from Louisiana State University, Baton Rouge, LA. The HCMV strain AD169 was obtained from the American Type Culture Collection (ATCC, Manassas, VA). Akata cells latently infected with EBV were obtained from Louisiana State University, Baton Rouge, LA.
(§2) Each experiment that evaluates the antiviral activity of compounds includes both positive and negative control compounds to ensure the performance of each assay. Concurrent assessment of cytotoxicity was also performed for each study in the same cell line and with the same compound exposure.
Assays for EBV were performed by reported methods.^37 Akata cells were induced to undergo a lytic infection with 50 μg/ml of a goat anti-human IgG antibody. Experimental compounds were diluted within plates. The cells were added and incubated for 72 h. Similar plates were initiated without virus induction/addition and used for measuring cytotoxicity by the addition of CTG. For all assays, the replication of the virus was assessed by the quantification of viral DNA. For EBV, primers 5′-[…]-3′ and 5′-CAG TTC CTC GCCTTAGGTTG-3 amplified a fragment corresponding to coordinates 96802-97234 in EBV genome (AJ507799). Compound concentrations sufficient to reduce genome copy number by 50% were calculated from experimental data as well as compound cytotoxicity.

Data set [2] can be described thus: Cytotoxicity in HFF cells (CellTiter-Glo), concurrent with HCMV assay. The note with it: human. In kind it is cell-based. Here is the method:
(§3) Human foreskin fibroblast (HFF) cells prepared from human foreskin tissue were obtained from the University of Alabama at Birmingham tissue procurement facility with approval from its IRB. The tissue was incubated at 4° C. for 4 h in Clinical Medium consisting of minimum essential media (MEM) with Earl's salts supplemented with 10% fetal bovine serum (FBS) (Hyclone, Inc. Logan UT), L-glutamine, fungizone, and vancomycin. Tissue was then placed in phosphate buffered saline (PBS), minced, rinsed to remove the red blood cells, and resuspended in trypsin/EDTA solution. The tissue suspension was incubated at 37° C. and gently agitated to disperse the cells, which were collected by centrifugation. Cells were resuspended in 4 ml Clinical Medium and placed in a 25 cm^2 flask and incubated at 37° C. in a humidified CO2 incubator for 24 h. The media was then replaced with fresh Clinical Medium and the cell growth was monitored daily until a confluent monolayer had formed. The HFF cells were then expanded through serial passages in standard growth medium of MEM with Earl's salts supplemented with 10% FBS, L-glutamine, penicillin, and gentamycin. The cells were passaged routinely and used for assays at or below passage ^10.37,38
as §2
Assays were performed in monolayers as described.37 Cells were seeded in 384 well plates and incubated for 24 h to allow the formation of confluent monolayers. Dilutions of test drug were prepared directly in the plates and the monolayers infected at a predetermined MOI based on virus used. After incubation, cytopathology was determined by the addition of CellTiter-Glo (CTG) reagent. Concentrations of test compound sufficient to reduce CPE by 50% (EC50) or decrease cell viability by 50% (CC50) were interpolated using standard methods in Microsoft Excel. Toxicity was measured using CTG as above.

Data set [3] deals with primary human MDM. Kind of data set: Toxicity to MDM: LDH assay and light microscopy. In kind it is cell-based. Here is the method:
Light microscopy was used to image MDMs on day 7 of infection. […] Colorimetric LDH assays were also performed on culture supernatants from these same cells on day 4 of infection to assess cell death.
At the end of each experiment, cells were imaged by light microscopy. After aspirating off media, cells were washed with PBS, and lysates were harvested in extraction buffer containing 0.1% Formic acid, 50% ACN, 40% MeOH, 10% H2O.
Drug toxicity was analyzed using an LDH assay kit according to manufacturer's instructions (Abcam #ab65393, Toronto, Canada). Briefly, supernatants from duplicate plates per treatment condition were added to a 96-well plate. Each supernatant was run in triplicate. Provided assay buffer was added to culture supernatants after mixing with a substrate solution that turns orange upon lactate exposure. After incubation for 30-45 min, colorimetric signal was quantified an OD of 450 nm. LDH was a positive control as well as cells lysed with 10% lysis buffer in media representing the “high control” to which % cytotoxicity was measured. The reference sample was either control uninfected cells treated with DMSO or negative control HIV-infected cells treated with DMSO. Culture media alone was used as a technical negative control. This background signal that was subtracted from all test wells.

The subject of data set [4] is HCMV (AD169 strain in HFF cells). Kind of data set: CPE (cytopathic effect) assay for HCMV. Format: cell-based, Human Cytomegalovirus. Here is the method: as §3, with “gentamycin.” for “gentamycin. The cells were passaged routinely and used for assays at or below passage ^10.37,38”
as §1, §2
Assays were performed in monolayers as described.37 Cells were seeded in 384 well plates and incubated for 24 h to allow the formation of confluent monolayers. Dilutions of test drug were prepared directly in the plates and the monolayers infected at a predetermined MOI based on virus used. After incubation, cytopathology was determined by the addition of CellTiter-Glo (CTG) reagent. […] Toxicity was measured using CTG as above.

Regarding `CC(C)C(=O)OCC1=C[C@@H](O)[C@H](n2ccc(N)nc2=O)O1` [Compound 8, 3′-Deoxy-3′,4′-didehydro-5′-O-isobutyroyl-cytidine], the “activity against EBV” value in data set [1] (cell-based assay, highest concentration tested in primary assays 50 μM) is “performed most favourably”. Further, the EC50 was 7.6 µM in data set [1] (Akata/Akata, Table 1, read-out: EBV EC50); 7.59 µM in data set [1] (read-out: Result for compound (EC50/UM), EBV Akata/Akata, assay order Primary); 7.6 to 38.7 µM in data set [1] (read-out: EC50 against EBV); approximately 20 nM in data set [4] (Human betaherpesvirus 5, AD169, HFF, approximate, read-out: EC50 against HCMV); 20 nM in data set [4] (Human betaherpesvirus 5, AD169 strain in HFF cells, Table 1, read-out: HCMV EC50). Besides, the CC50 in data set [2] was more than 50 µM. Moreover, the “LDH activity in HIV-infected MDMs relative to DMSO controls” value in data set [3] (100 μM, day 4 of infection) is listed as “nearly identical”. Moreover, the “LDH activity relative to uninfected DMSO controls” value in data set [3] (100 μM, uninfected or HIV-infected MDMs, day 4 of infection) is reported as “no significant difference”. In addition, the “toxicity to MDMs” value in data set [3] (100 uM, visual inspection by light microscopy and colorimetric LDH assays) was “non-toxic”.
